Reference: paper PMC10967572, “Induction of Oxidative Stress and Ferroptosis in Triple-Negative Breast Cancer Cells by Niclosamide via Blockade of the Function and Expression of SLC38A5 and SLC7A11” (Antioxidants, 2024)
Counter-ions that a name gives are not always drawn. Residues, ends and D or L forms follow the SMILES beside them. *: point of attachment. Cbz = O=C(OCc1ccccc1)*; CH2F = FC*

Experiments:
[1] = tested on: Nrf2; assay: Nrf2 expression and subcellular localization (immunostaining, Western blot, qRT-PCR) in TNBC cells; format: cell-based, human; conditions: MB231 and TXBR100; 24 h; Se-Met 250 μM and 1 mM, monomethylfumarate 0.1 mM; immunostaining and Western blot
Experimental: (§1) Total RNA was extracted from cells using TRIzol Reagent (ThermoFisher Scientific, Waltham, MA, USA) and the RNA was reverse-transcribed using a high-capacity cDNA reverse transcription kit (ThermoFisher Scientific, Waltham, MA, USA) according to the manufacturer’s protocol. Quantitative RT-PCR was performed with Takara Taq Hot Start Version (TaKaRa Biotechnology, Shiga, Japan) or Power SYBR Green PCR master mix (Bio-Rad, Hercules, CA, USA). Primer sequences are shown in Supplemental Table S1. The relative mRNA expression was determined by the 2^−∆∆Ct method. Additionally, 18S was used as a housekeeping gene for normalization.
Cells and tumor tissues were lysed in Pierce™ RIPA buffer (ThermoFisher Scientific, Waltham, MA, USA) supplemented with Halt™ Protease and Phosphatase Inhibitor Cocktail (ThermoFisher Scientific, Waltham, MA, USA). Homogenates were centrifuged, and supernatants were used for protein measurement via Pierce™ BCA Protein Assay Kit (ThermoFisher Scientific, Waltham, MA, USA). […] Western blot samples were prepared in Laemmli sample buffer (Bio-Rad Laboratories, Hercules, CA, USA). They were loaded onto a SDS–PAGE gel and transferred onto a PVDF membrane (Bio-Rad Laboratories, Hercules, CA, USA). The membrane was blocked and antibodies diluted in 5% nonfat dry milk (Bio-Rad Laboratories, Hercules, CA, USA) or in 5% bovine serum albumin (Irvine Scientific, Santa Ana, CA, USA) were used. Protein bands were visualized using Pierce™ ECL Western Blotting Substrate (ThermoFisher Scientific, Waltham, MA, USA) and developed on the autoradiography film (Santa Cruz, Dallas, TX, USA). Primary antibodies were purchased either from Cell Signaling (Danvers, MA, USA) [anti-GPX4 (#52455), anti-FTH (#4393), anti-HSP60 (#12165), anti-phospho-p70S6K (#9205), anti-p70S6K (#2708)] or from Abcam (Waltham, MA, USA) [Nrf2 (#ab62352)]. Secondary antibody Horseradish peroxidase-conjugated goat anti-rabbit IgG (#1706515) was purchased from Bio-Rad Laboratories (Hercules, CA, USA). For quantification of protein levels by the densitometric analysis, the experiment was carried out in triplicate and the data were collected from the resultant three Western blots.

[2] = tested on: SLC7A11; assay: SLC7A11 transport activity (glutamate uptake) after treatment of cells; format: cell-based, human; conditions: MB231, TXBR100 and MB453 cells treated before uptake
Experimental: The transport activity of SLC7A11 was calculated by subtracting the diffusional component from total uptake. […] Confluent cultures were used for uptake measurements.

[3] = target: SLC38A5 (Homo sapiens, UniProt Q8WUX1); assay: Inhibition of SLC38A5-mediated [3H]-serine uptake in TNBC cells; conditions: IC50 for the inhibition of SLC38A5-mediated serine uptake, serine 5 μM, LiCl buffer pH 8.5 with 5 mM tryptophan
Chain of SLC38A5 (Homo sapiens, UniProt Q8WUX1) (Q8WUX1 whole entry): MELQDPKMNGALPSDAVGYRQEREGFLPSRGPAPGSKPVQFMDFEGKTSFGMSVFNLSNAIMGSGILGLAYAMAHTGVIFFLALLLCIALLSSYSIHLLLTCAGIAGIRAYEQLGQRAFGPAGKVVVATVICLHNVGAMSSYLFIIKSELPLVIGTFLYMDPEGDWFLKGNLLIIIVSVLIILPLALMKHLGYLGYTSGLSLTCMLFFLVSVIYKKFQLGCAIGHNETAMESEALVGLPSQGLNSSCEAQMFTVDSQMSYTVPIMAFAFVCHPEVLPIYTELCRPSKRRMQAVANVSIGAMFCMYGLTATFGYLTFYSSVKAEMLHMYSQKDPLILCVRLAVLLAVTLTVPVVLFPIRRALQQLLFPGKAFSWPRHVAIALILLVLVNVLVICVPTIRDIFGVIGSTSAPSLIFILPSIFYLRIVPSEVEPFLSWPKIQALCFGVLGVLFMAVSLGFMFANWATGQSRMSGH

[4] = tested on: MB231 cells and TXBR100 cells; assay: Lipid radical (ferroptosis) assay with LipiRadical Green; format: cell-based, human; conditions: inhibitor 10 μM with niclosamide 5 μM; MB231 and TXBR100
Experimental: Lipid radical (ferroptosis) assay and iron assay were performed as follows. Cells were cultured on a 25 mm glass coverslip until they reached 60–70% confluency (~48 h). At the time of the experiment, cells were washed with NaCl buffer, pH 7.5 and then incubated with 1 µM of LipiRadical Green (a lipid radical detection reagent, FDV-0042, Funakoshi, Tokyo, Japan) or Ferro-orange (an iron detection probe, F374, Dojindo, Rockville, MD, USA) in NaCl buffer, pH 7.5 for 20 min and then washed with NaCl buffer, pH 7.5. To analyze the effects of modifiers of iron levels and lipid peroxidation, the cells were co-treated with the modifiers and the respective fluorescent probe for 20 min and then washed. The glass coverslip containing the cells was then probed under an inverted microscope. The fluorescence imaging was captured using a Nikon T1-E microscope with A1 confocal super-resolution module (Nikon, Dallas, TX, USA), with a 60× objective, at 488 nm. The images represent a maximum projection intensity derived from a Z-stack. The fluorescence quantification was performed by measuring the corrected total cell fluorescence (CTCF) using Image J (version: 2.14.0/1.54f) and the following formula; CTCF = (integrated density) − (area of cell of interest) × (mean fluorescence of background).

[5] = tested on: TNBC cells (MB231 and TXBR100); assay: MTT cell proliferation / viability assay; format: cell-based, human; conditions: niclosamide 1 μM with inhibitor 10 μM (hydroxychloroquine 25 μM), 48 h
Experimental: Cells were seeded in 96-well plates; after 24 h, niclosamide treatment was initiated. Cells were then cultured for 72 h with fresh medium containing freshly prepared niclosamide supplied every 24 h. Cells were washed with phosphate-buffered saline twice followed by MTT reagent (ATCC). Treatment and lysis of the cells were done as per the manufacturer’s instructions. Absorbance of the lysate was measured at 550 nm. Cell viability assay with various cell-death inhibitors was also performed as described above. Cells were treated with niclosamide (1 µM) along with cell death inhibitors (10 µM), except hydroxychloroquine (25 µM) for 48 h.

[6] = tested on: SLC38A5; parameters: method as in PMID 11243884, PMID 37812701; conditions: cited from earlier work
[7] = tested on: Nrf2 target genes (SLC7A11, HO-1, GCLC, GCLM); assay: qRT-PCR of Nrf2 target genes in TNBC cells; format: cell-based, human; conditions: MB231, TXBR100 and MB453, Se-Met 1 mM, 16 h
Experimental: as §1

[8] = tested on: MB231 cells and TXBR100 cells; assay: Cellular glutathione levels (GSH-Glo assay); format: cell-based, human; conditions: Homo sapiens; buthionine sulfoximine 100 μM; both cell lines (MB231, TXBR100)
Experimental: Control and niclosamide-treated cells were used for measurement of cellular glutathione levels as instructed in the manufacturer’s protocol (GSH-Glo assay, Promega, Madison, WI, USA). The levels of malondialdehyde were measured using lipid peroxidation kit [Lipid Peroxidation (MDA) Assay Kit (MAK085), Millipore-sigma, St. Louis, MO, USA].

Compound | cellular levels and nuclear localization of Nrf2 [1] | transport activity of SLC7A11 (glutamate uptake) in treated cells [2] | effect of cell death inhibitor on niclosamide-induced increase in lipid radical fluorescence [4] | effect of cell death inhibitor on cell viability in the presence of niclosamide [5] | also measured
CSCC[C@H](N)C(=O)O [methionine] | did not have any noticeable effect | did not have any effect | – | – | IC50 ([3]; MB231 cells): 518 µM; IC50 ([3]; TXBR100 cells): 316 µM
COC(=O)C[C@H](NC(=O)[C@H](C)NC(=O)[C@@H](NC(=O)OCc1ccccc1)C(C)C)C(=O)CF [ZVAD-fmk] (Cbz-Val-Ala-Asp(OMe)-CH2F) | – | – | did not have any effect | failed to promote cell viability | –
COC(=O)/C=C/C(=O)O [monomethylfumarate, monomethyl fumarate] | increased | stimulatory effect | – | – | –
N[C@@H](CO)C(=O)O [serine] | – | – | – | – | Kt value for SLC38A5-mediated transport [6]: 200 to 1300 µM
CCOC(=O)c1ccc(NC2CCCCC2)c(N)c1 [ferrostatin 1, ferrostatin-1] | – | – | blocked this increase | improved cell viability | –
CCN(CCO)CCCC(C)Nc1ccnc2cc(Cl)ccc12 (centres unmarked) [hydroxychloroquine] | – | – | – | failed to promote cell viability | –
C[Se]CC[C@H](N)C(=O)O [Se-Met, seleno-methionine] | increased | increased substantially | – | – | mRNA levels for Nrf2 targets SLC7A11, HO-1, GCLC and GCLM [7]: significant increase; IC50 ([3]; MB231 cells): 680 µM; IC50 ([3]; TXBR100 cells): 453 µM
CN1C(=O)C(Cc2c[nH]c3ccccc23)NC1=S (centres unmarked) [necrostatin, necrostatin-1] | – | – | did not have any effect | failed to promote cell viability | –
CCCCS(=N)(=O)CCC(N)C(=O)O (centres unmarked) [buthionine sulfoximine] | – | – | – | – | inhibition at 100 µM [8]: ~90%
